These results are taken from publication PMC3038607 (Journal of the American Chemical Society, 2011).

This test concerns the target T1, dimethylarginine dimethylaminohydrolase (DDAH) (Pseudomonas aeruginosa, UniProt Q9I4E3).
T1 sequence (Q9I4E3 1-254): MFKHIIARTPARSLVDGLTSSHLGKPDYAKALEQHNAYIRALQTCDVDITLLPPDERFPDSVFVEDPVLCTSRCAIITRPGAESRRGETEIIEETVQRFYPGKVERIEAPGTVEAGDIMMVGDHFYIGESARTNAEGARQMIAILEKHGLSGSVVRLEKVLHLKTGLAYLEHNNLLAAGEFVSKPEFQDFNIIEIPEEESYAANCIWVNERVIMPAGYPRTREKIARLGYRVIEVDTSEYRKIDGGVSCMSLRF
Put plainly: time-dependent inactivation kinetics. Type of test: biochemical. The settings on record: read-out: Ki.

With `Cc1cc(Br)ccn1` [compound 1, 4-bromo-2-methylpyridine], the KI (inactivation) was found to be 2600 ± 800 µM.
